{"source": "ChEMBL document CHEMBL1126726", "about": "(J Med Chem, 1993)", "key": {"Canis familiaris [1]": {"species_on_record": "Canis familiaris", "experiment": "In vitro evaluation in the dog saphenous vein for maximal response", "assay_type": "functional, organism-based", "conditions": "Canis lupus familiaris"}, "Canis familiaris [2]": {"species_on_record": "Canis familiaris", "experiment": "Intrinsic activity was measured as maximum contraction relative to 5-HT in dog saphenous vein", "assay_type": "functional, Canis lupus familiaris"}, "Oryctolagus cuniculus [3]": {"species_on_record": "Oryctolagus cuniculus", "experiment": "(§1) Intrinsic activity was measured as maximum contraction relative to 5-HT in rabbit basilar artery", "assay_type": "functional"}, "Oryctolagus cuniculus [4]": {"species_on_record": "Oryctolagus cuniculus", "experiment": "In vitro evaluation in rabbit basilar artery for maximal response", "assay_type": "functional, organism-based"}, "[5]": {"target": "Serotonin 2 (5-HT2) receptor (Rattus norvegicus) (UniProt P30994+P08909+P14842)", "sequence (P14842 whole entry, looked up, one chain of several)": "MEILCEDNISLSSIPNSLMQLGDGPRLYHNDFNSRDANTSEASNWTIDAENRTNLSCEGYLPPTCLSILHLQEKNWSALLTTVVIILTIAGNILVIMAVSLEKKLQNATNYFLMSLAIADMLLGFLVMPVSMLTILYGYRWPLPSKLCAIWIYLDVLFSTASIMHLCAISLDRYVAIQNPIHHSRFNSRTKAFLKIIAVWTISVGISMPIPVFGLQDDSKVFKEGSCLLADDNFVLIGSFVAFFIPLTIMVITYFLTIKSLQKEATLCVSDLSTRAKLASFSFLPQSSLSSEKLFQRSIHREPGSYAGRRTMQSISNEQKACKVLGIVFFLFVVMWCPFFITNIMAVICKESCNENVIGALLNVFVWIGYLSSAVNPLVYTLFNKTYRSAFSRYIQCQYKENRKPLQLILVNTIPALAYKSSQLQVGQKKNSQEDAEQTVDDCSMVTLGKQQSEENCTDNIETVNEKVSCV", "sequence (P30994 whole entry, looked up, one chain of several)": "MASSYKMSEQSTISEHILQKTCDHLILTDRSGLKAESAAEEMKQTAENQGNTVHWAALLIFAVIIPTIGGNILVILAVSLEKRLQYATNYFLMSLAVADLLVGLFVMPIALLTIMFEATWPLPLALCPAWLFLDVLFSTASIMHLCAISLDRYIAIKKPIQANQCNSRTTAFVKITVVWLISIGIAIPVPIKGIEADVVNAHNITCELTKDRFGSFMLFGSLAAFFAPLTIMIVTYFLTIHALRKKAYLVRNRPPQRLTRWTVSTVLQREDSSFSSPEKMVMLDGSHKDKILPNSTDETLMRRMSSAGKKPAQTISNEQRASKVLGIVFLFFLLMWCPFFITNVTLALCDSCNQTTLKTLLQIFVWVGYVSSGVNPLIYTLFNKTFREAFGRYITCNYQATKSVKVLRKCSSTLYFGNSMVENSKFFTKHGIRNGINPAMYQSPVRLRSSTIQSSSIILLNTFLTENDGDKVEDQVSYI", "conditions": "Cortex"}, "[6]": {"experiment": "as §1", "assay_type": "functional, Oryctolagus cuniculus"}, "[7]": {"target": "T1, 5-hydroxytryptamine receptor 2C (Rattus norvegicus) (UniProt P08909)", "T1 sequence (whole entry)": "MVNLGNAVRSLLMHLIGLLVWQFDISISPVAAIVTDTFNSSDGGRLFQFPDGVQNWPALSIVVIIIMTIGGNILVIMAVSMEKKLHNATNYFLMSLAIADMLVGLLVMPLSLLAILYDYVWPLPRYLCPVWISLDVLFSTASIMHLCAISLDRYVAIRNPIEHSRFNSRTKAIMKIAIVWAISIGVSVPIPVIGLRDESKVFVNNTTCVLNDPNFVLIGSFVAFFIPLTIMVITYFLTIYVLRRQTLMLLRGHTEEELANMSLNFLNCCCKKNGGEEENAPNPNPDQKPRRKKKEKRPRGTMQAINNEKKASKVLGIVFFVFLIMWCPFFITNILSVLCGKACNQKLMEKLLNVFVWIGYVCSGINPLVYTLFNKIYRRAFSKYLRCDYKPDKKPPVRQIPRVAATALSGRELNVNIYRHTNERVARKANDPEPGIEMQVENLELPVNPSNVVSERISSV"}, "[8]": {"target": "Serotonin 2 (5-HT2) receptor (Homo sapiens) (UniProt P41595+P28223+P28335)", "sequence (P28223 whole entry, looked up)": "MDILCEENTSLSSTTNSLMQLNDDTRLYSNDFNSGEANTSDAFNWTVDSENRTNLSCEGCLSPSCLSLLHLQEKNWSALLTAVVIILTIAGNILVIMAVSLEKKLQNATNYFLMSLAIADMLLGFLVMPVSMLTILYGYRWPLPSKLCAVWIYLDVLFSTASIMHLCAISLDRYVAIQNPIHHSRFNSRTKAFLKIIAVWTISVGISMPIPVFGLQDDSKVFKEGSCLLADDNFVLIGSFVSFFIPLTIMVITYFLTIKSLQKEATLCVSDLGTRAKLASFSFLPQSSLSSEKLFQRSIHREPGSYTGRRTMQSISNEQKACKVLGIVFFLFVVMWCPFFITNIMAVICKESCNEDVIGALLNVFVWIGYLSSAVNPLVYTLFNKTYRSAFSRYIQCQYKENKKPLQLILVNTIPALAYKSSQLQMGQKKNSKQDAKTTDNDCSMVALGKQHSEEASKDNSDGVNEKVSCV", "sequence (P28335 whole entry, looked up)": "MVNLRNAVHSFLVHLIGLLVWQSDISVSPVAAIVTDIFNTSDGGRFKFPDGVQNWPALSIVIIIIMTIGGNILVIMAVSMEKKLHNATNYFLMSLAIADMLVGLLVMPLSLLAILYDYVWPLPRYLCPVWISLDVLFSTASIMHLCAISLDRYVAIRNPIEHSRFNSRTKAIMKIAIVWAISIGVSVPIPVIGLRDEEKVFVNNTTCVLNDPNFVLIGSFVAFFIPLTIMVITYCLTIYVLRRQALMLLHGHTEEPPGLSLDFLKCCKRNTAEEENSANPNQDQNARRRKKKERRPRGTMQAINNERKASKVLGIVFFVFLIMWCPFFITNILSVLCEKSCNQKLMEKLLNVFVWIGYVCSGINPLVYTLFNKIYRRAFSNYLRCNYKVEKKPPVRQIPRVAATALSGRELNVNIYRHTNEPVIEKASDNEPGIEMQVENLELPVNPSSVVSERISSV", "sequence (P41595 whole entry, looked up)": "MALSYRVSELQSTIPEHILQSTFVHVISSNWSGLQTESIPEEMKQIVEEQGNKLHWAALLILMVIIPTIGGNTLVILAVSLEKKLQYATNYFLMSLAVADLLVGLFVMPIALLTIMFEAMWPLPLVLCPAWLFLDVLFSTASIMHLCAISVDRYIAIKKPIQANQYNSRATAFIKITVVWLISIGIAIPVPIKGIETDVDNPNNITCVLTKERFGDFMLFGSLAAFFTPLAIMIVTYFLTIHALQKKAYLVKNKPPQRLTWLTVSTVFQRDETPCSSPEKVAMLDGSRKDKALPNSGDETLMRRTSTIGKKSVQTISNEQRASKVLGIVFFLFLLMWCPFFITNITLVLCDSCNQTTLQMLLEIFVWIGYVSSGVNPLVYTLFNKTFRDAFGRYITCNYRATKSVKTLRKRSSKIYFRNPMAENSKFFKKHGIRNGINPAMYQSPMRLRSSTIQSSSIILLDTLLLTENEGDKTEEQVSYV"}}, "data": [{"smiles": "CNS(=O)(=O)Cc1ccc2[nH]cc(CCN(C)C)c2c1", "values": [{"measurement": "EC50", "setting": "Canis familiaris [1]", "result": 400, "unit": "nM"}, {"measurement": "IA", "setting": "Canis familiaris [2]", "result": 0.78}, {"measurement": "IA", "setting": "Oryctolagus cuniculus [3]", "result": 0.74}, {"measurement": "EC50", "setting": "Oryctolagus cuniculus [4]", "result": 2400, "unit": "nM"}, {"measurement": "pKD", "setting": "[5]", "result": "> 4"}]}, {"smiles": "NCCc1c[nH]c2ccc(O)cc12", "note": "[SEROTONIN]", "values": [{"measurement": "IA", "setting": "Canis familiaris [2]", "result": 1}, {"measurement": "IA", "setting": "[6]", "result": 1}]}, {"smiles": "NCCc1c[nH]c2ccc(C(N)=O)cc12", "values": [{"measurement": "pKD", "setting": "[7]", "result": 6.2}, {"measurement": "pKD", "setting": "[8]", "result": 4.7}]}, {"smiles": "CCN(CC)C(=O)N[C@H]1C=C2c3cccc4[nH]cc(c34)C[C@H]2N(C)C1", "note": "[LISURIDE]", "values": [{"measurement": "IA", "setting": "Canis familiaris [2]", "result": 0.73}, {"measurement": "IA", "setting": "Oryctolagus cuniculus [3]", "result": 0.73}]}]}
